For one experiment, the target named is Sla1 third SH3 domain. Further details: method as in PMID 17244534. As to conditions: third SH3 domain of Sla1; ref [10]; read-out: binding to ubiquitin affinity; cited from earlier work.
Experiment [1] relates to Las17 and las17 P387A expressing yeast strains. Description: Latrunculin-A halo assay on yeast. As to conditions: sole Las17 in cells, words. The experiment is classed as cell-based, Saccharomyces cerevisiae. As for the experimental part: (§1) Supplementary Information.
(§2) Methods used in Supplementary Data
(§3) Yeast strains, growth and staining
(§4) Yeast plasmids used in this study are listed in Supplementary table 1 and yeast strains used in Supplementary table 2. Unless stated otherwise, cells were grown with rotary shaking at 30°C in liquid YPD medium (1% yeast extract, 2% Bacto-peptone, 2% glucose supplemented with 40 μg/ml adenine) or in synthetic medium (0.67% yeast nitrogen base, 2% glucose) with appropriate supplements. Growth assays used solid medium with 2% agar added to above. All strains carrying fluorescent tags have growth properties similar to isogenic control strains with the exception of strains carrying dual reporters where lifetimes were longer for both wild type and mutant strains (in Figure 9D). Point mutations in LAS17 were generated using site directed mutagenesis (Agilent). DNA cassettes carrying mutations for integration were transformed into KAY1801. Mutant colonies were counter-selected on minimal medium, containing 0.005% uracil and 0.1% 5’-Fluoroorotic Acid (5-FOA; Melford labs). […]
(§5) expressing strains on plates on which a disc carrying 10 µl of latrunculin-A of varying concentrations was placed (white disc). […] They were then scored according to the extent of uptake and categorised according to the key shown. >100 cells were visualised for each strain in each of 3 independent experiments. […]

For a further experiment, the system named is las17 P387A yeast strain. Description: Growth of yeast, temperature sensitivity. Type of experiment: cell-based, Saccharomyces cerevisiae. As to conditions: range of temperatures, sole Las17 in cells. The procedure: as §1, §2, §3, §4, §5
Experiment [2] has as its system F-actin organisation in yeast cells. Description: Rhodamine-phalloidin staining, actin organisation in cells. The experiment is classed as cell-based, Saccharomyces cerevisiae. The note with it: vs wild type cells. The procedure: as §1, §2, §3, §4, §5
Another experiment relates to yeast cells. Description: Lucifer yellow bulk phase endocytosis. The experiment is classed as cell-based, Saccharomyces cerevisiae. As to conditions: 90 minutes at 30°C, vs wild type. The procedure:
as §1, §2, §3, §4, §5

A further experiment has as its system Abp1. The experiment can be described thus: Lifetime of Abp1-GFP patches at endocytic sites. The note with it: las17 P387A background vs wild type; wt n = 183, P387A n = 96. The experiment is classed as cell-based, Saccharomyces cerevisiae. As for the experimental part:
(§6) For live-cell imaging, cells expressing tagged proteins were visualised after growing to early log phase. Analysis was carried out at room temperature (22 °C). Time-lapse of wild-type and mutated Las17-GFP was acquired using OMX DeltaVision V4 and a 60×/1.42 NA objective. Images were taken simultaneously on separate scientific complementary metal oxide semiconductor (sCMOS) cameras (30 msec exposure). Seven 250 nm sections were acquired every 0.5 sec (241 time points). The stacks were then deconvolved and processed, using SoftWorx. Protein localisation and lifetime was analysed from those projections. Fiji software was used to assemble movies and kymographs, to track and record behaviour of individual spots. Graphs show mean ± SD. Sample size Fig. 9A wt n = 67, P387A n = 52; 9B wt n = 183, P387A n = 96; 9 C wt n = 156, P387A n = 132. Where appropriate data was tested for normal distribution using Graphpad Prism software, and then subjected to the appropriate test as described in the methods for each experiment type.
(§7) Lifetime and behaviour of cell reporter proteins using fluorescence microscopy: Graphs show mean ± SD. Sample size Fig. 9A wt n = 67, P387A n = 52; 9B wt n = 183, P387A n = 96; 9 C wt n = 156, P387A n = 132. Unpaired Mann Whitney statistical analysis of patch lifetimes was carried out using Graphpad Prism software, **** denotes two tailed P value of <0.0001.

In experiment [3] the test system is Arc15-mCherry (Arp2/3 complex). Description: Lifetime of Arc15-mCherry patches at endocytic sites. Type of experiment: cell-based, Saccharomyces cerevisiae. As to conditions: las17 P387A background vs wild type; wt n = 156, P387A n = 132. As for the experimental part: as §6, §7
The test system of experiment [4] is Las17-GFP and Arc15-mCherry. Description: Dual-reporter lifetimes, Las17-GFP and Arc15-mCherry co-localisation. Type of experiment: cell-based, Saccharomyces cerevisiae. Further details: lifetime, GFP alone / lifetime, GFP and RFP / lifetime, RFP: unit not given here. The procedure: A size bar for each set of kymographs is shown on the upper right of each set. For (A) and (C) size bar is 100 nm and for B is 200 nm. Error bars are standard deviation. […] The site of interest is labelled in the first two time panels with a white arrow. Exposure 0.5 sec with 1 second time lapse. 120 s recorded. […] Error bars are standard deviation.
Individual spots were analysed for lifetimes and behaviours.
Yeast strains used in this study are listed in Supplementary table 2 and plasmids used in Supplementary table 1. Unless stated otherwise, cells were grown with rotary shaking at 30 °C in liquid YPD medium (1% yeast extract, 2% Bacto-peptone, 2% glucose supplemented with 40 μg/ml adenine) or in synthetic medium (0.67% yeast nitrogen base, 2% glucose) with appropriate supplements. […] DNA cassettes carrying mutations for integration were transformed into KAY1801. Mutant colonies were counter-selected on minimal medium, containing 0.005% uracil and 0.1% 5’-Fluoroorotic Acid (5-FOA; Melford laboratories). Allele exchange, in growing Ura3^-, 5-FOA resistant colonies, was confirmed by PCR and sequencing.
as §6, with “Time-lapse of wild-type and mutated Las17-GFP was acquired using OMX DeltaVision V4 and a 60×/1.42 NA objective.” left out, “Sample size Fig. 9A wt n = 67, P387A n = 52; 9B wt n = 183, P387A n = 96; 9 C wt n = 156, P387A n = 132.” left out

Experiment [5] deals with Sla1 inhibition of Las17-mediated actin polymerisation. Description: Pyrene actin assay, alleviation of Sla1 inhibition of Las17-mediated actin polymerisation. The experiment is classed as biochemical. The note with it: Arp2/3-independent, activated Sec4, Las17 300 nM, Sla1 SH3 1+2+3 300 nM, 3 µM actin. The procedure:
Fluorometry assays were performed as described previously. 370 μl assays used 3 μM actin as indicated unless otherwise specified. Pyrene-actin was added to 5%, mixed thoroughly, and added to the fluorometry cuvette. Polymerization salts, 10× KME (500 mM KCl, 10 mM MgCl2, 10 mM EGTA, 100 mM Tris-HCl [pH 8.0]) were mixed with fragments or G buffer to give final concentration of 0.5× KME before reading fluorescence. […] Experiments were carried out three separate times with different protein preparations and a representative graph shown.
Liposome binding assays were carried out as described previously. To prepare liposomes 11 μl of a 25 mg/ml solution of Folch fraction-1 was dried under a nitrogen stream. They were washed in chloroform, dried under nitrogen, and further washed with diethyl ether to remove all traces of chloroform before being dried again. […] The pellets were resuspended in 50 µl buffer B and samples were analysed by SDS-PAGE. The proportion of protein in each sample was determined by densitometry of the Coomassie stained gels using a BioRad GelDoc. […] To normalise the data the amount of protein in the supernatant and pellet of each sample was added together to give a value for 100%, and then the % in either the supernatant or pellet alone was calculated. […]

For experiment [6] the test system is unchanged. The note with it: with Arp2/3; ref [24]; cited from earlier work. The source says:
As shown in vitro in Fig. 7D, the addition of activated Sec4 to pyrene assays does indeed rel ...

The subject of the next experiment is Las17. As to conditions: cell free extracts; ref [24]; cited from earlier work. The source says:
The model predicts an extensive interaction surface highlighted in red (Fig. 7E).

The mark [7] stands for this setting: Las17-GFP / Arc15-mCherry dual-label strain.
[8] abbreviates: sheet Fig9E, individual endocytic patches, one per cell.

Values joined by “and” are separate entries in the source; they are usually repeats but may differ in a detail not shown here. Equal entries are not always repeated.

With ubiquitin, at Sla1 third SH3 domain, the Kd was 39 µM.

On to “las17 P387A: full-length Las17 with P387A, integrated in yeast in place of wild type LAS17”, for which, in experiment [1], the “sensitivity to latrunculin-A” value is listed as “increase in sensitivity to latrunculin-A”. The growth entry with las17 P387A yeast strain is “able to support growth across a range of temperatures”. For the same substance, the “actin organisation in cells” value in [2] was “less well polarised”. In addition, the bulk phase endocytosis entry in the experiment with yeast cells is recorded as “slower than in wild type cells”. Besides, the “lifetime of Abp1 patches” value in the experiment with Abp1 is reported as “increased lifetime”. Moreover, the “lifetime of Arc15 patches” value in [3] is “increased lifetime”. For the same substance, in experiment [4] (setting [7]), the “duration of co-localization of Las17-GFP and Arc15-mCherry” value was found to be 28 s; the “time of Arc15-mCherry alone after Las17 disassembly” value came out at 15 s; the “time of Las17 at the site before Arc15 is recruited” value is given as “about 40 s”. Further, in experiment [4] (setting [8]), the “lifetime, GFP alone” value was 30 and 22 and 44 and 66; the “lifetime, GFP and RFP” value is 46 and 78 and 88; the “lifetime, RFP” value was 62 and 92 and 108.

With Sec4: small GTPase Sec4 (full length), the “relief of Sla1 inhibition of Las17-mediated actin polymerisation” value in experiment [5] is recorded as “does indeed relieve inhibition of Las17-mediated actin polymerisation”. For the same substance, the “relief of Sla1-SH3 inhibition of Las17-Arp2/3-mediated actin nucleation” value in experiment [6] is on record as “alleviated Sla1-SH3 domain inhibition of Las17-Arp2/3-mediated actin nucleation”. Also, in the experiment on Las17, the “direct binding to Las17” value is reported as “could bind directly to Las17”.

The values above are taken from article PMC12081870 (Communications Biology, 2025).
